Results as given in the NIST ThermoML archive (doi:10.1021/acs.jced.9b00710).
Numbers after ± are expanded uncertainties.

Experiments:
[1] = Crystal; DSC
[2] = Molar enthalpy of transition or fusion; conditions: Crystal; DSC
[3] = refractive index (Na D-line) (dimensionless); conditions: 293.15 K; 101.33 kPa; Liquid; Standard Abbe refractometry

| Structure (SMILES) | Triple point temperature [1] [K] | Molar enthalpy of transition or fusion [2] [kcal/mol] | refractive index [3] |
| --- | --- | --- | --- |
| O=C(O)c1ccccc1 [benzoic acid] | 395.63 ± 1.2 | 4.25 ± 0.43 | – |
| CCCCO [butan-1-ol] | – | – | 1.3989 ± 0.002 |
| CCC(C)=O [butanone] | – | – | 1.3787 ± 0.002 |
| C1CCCCC1 [cyclohexane] | – | – | 1.4235 ± 0.002 |
| C[S+](C)[O-] [dimethyl sulfoxide] | – | – | 1.4789 ± 0.002 |
| CN(C)C=O [dimethylformamide] | – | – | 1.4309 ± 0.002 |
| CCO [ethanol] | – | – | 1.361 ± 0.002 |
| Cc1nnc(C(C)C)n1[C@@H]1C[C@H]2CC[C@@H](C1)N2CC[C@H](NC(=O)C1CCC(F)(F)CC1)c1ccccc1 [maraviroc] | 468.1 ± 1.2 | 8.7 ± 0.884 | – |
| CCCC(C)=O [pentan-2-one] | – | – | 1.3893 ± 0.002 |
| CCCO [propan-1-ol] | – | – | 1.3854 ± 0.002 |
| O=C(Nc1c(Cl)cncc1Cl)c1ccc(OC(F)F)c(OCC2CC2)c1 [roflumilast] | 432.4 ± 1.2 | 9.04 ± 0.932 | – |
| O [water] | – | – | 1.3334 ± 0.002 |
